Reference: paper PMC9080521, “Molecular basis of rutin inhibition of protein disulfide isomerase (PDI) by combined in silico and experimental methods” (RSC Advances, 2018)
Values joined by “and” are separate entries in the source; they are usually repeats but may differ in a detail not shown here. Equal entries are not always repeated.

Legend:
[1] = tested on: MBP (MBP-PNGase, MBP-SpoIVB, MBP-MOC1); assay: Fluorescence measurement with MBP-fusion control proteins; assay type: binding; details: rutin 55 μM, MBP-fusion proteins 18 μM, excitation 430 nm
Description: The relevant recombinant proteins were incubated with rutin in black 384-well plate at room temperature for 30 min before measurements. The concentrations of proteins were always kept at 18 μM and rutin was 55 μM. The total assay volume was filled to 100 μL using the protein buffer (pH 7.4). The fluorescence emission spectrum of every mixture were measured with the excitation at 430 nm and the emission at 460 nm at room temperature on a BioTek Synergy microplate reader with a sensitivity of 100 or 120 and measurements of per data with 100 times. […]
presence of three different MBP-fusion proteins. The MBP-fusion proteins (MBP-PNGase protein (gray dash-dot line), MBP-SpoIVB protein (gray dash line) and MBP-MOC1 protein […]
at 430 nm. Addition of rutin (55 μМ) to these proteins (MBP-PNGase in black solid line, MBP-SpoIVB in black dash line and MBP-MOC1 in black dot line) gave the signals almost identical to rutin itself (gray solid), which has a maximum fluorescence at 550 nm.
(1 picture or pasted object on this page, not shown here)

MBP-PDI-b′xa′ E359A = target: T1, MBP-PDI-b′xa′ E359A (Homo sapiens, UniProt P07237, E359A); assay: Isothermal titration calorimetry (ITC); assay type: binding; details: 25 °C
T1 construct: MBP-PDI-b′xa′(235–479); His-tag; made in house; host or cells: E. coli BL21 (DE3)
T1 sequence (P07237 235-479 E359A): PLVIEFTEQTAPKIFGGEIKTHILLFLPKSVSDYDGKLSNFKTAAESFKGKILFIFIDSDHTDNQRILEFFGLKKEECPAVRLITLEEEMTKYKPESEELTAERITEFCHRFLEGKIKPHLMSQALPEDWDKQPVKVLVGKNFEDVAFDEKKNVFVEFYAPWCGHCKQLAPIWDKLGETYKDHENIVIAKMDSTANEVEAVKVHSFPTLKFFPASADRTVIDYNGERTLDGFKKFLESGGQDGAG
Description: (§1) Microcalorimetry titration of rutin to PDI recombinant and mutant proteins used a MicroCal ITC200 microcalorimeter (GE Healthcare). PDI recombinant proteins, which concentration ranges from 25 μM to 50 μM, were added into the cell (about 300 μL). Rutin, with concentration ranging from 500 μM to 1 mM, was injected from syringe to titrate the protein in cell (almost 40 μL). The experiment was performed at 25 °C with a equilibration time of 10 min, the reference power was set to 6.25 μcal s^−1. The process including 25 injections, each of 1, 2 or 2.5 μL rutin, in a duration of 3 s, and the interval time between two injections was 180 s. Data was analyzed with MicroCal Origin (MicroCal).
(§2) Next, we resorted to a more sensitive method, isothermal titration calorimetry (ITC), to measure the direct binding. Due to the weak interaction, this method requires large amounts of high-purity protein samples (about 240 μL at 20–50 μM) to be titrated by the highest concentration of rutin (its water solubility of about 200 μM), so that the release of heat as a result of complex formation reached plateau phase rapidly and was enough to be measured. A problem we encountered is that the starting phase of the S-shape curve of heat measurement cannot always be resolved using the typical titration program of ITC, thus affecting the accuracy of dissociation constant (Kd) measurement from the S-shape ITC curve. This was due to the use of equal volume of small molecule titrant (∼2.5 μL) used in the typical ITC titration. Therefore, we established an optimized ITC titration scheme by using variable drop sizes, which started with small drops (1 μL at first ten times of injection) and ended with large drops (2 μL). We thus obtained S-shape ITC curves with well-defined upper and lower platforms (Fig. 5 and S6 ^†), which allowed the accurate measurements of Kd values.

MBP-PDI-b′xa′ E359K = target: T2, MBP-PDI-b′xa′ E359K (Homo sapiens, UniProt P07237, E359K); assay: Isothermal titration calorimetry (ITC); assay type: binding; details: 25 °C
T2 construct: MBP-PDI-b′xa′(235–479); His-tag; made in house; host or cells: E. coli BL21 (DE3)
T2 sequence (P07237 235-479 E359K): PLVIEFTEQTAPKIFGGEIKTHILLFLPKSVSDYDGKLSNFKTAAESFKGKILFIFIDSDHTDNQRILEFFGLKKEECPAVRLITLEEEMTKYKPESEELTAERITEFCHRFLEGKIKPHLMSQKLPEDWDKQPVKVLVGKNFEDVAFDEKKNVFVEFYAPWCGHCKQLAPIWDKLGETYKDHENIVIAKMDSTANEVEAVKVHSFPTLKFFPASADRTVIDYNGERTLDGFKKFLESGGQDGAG
Description: as §1, §2

MBP-PDI-b′xa′ H354A = target: T3, MBP-PDI-b′xa′ H354A (Homo sapiens, UniProt P07237, H354A); assay: Isothermal titration calorimetry (ITC); assay type: binding
T3 construct: MBP-PDI-b′xa′(235–479); His-tag; made in house; host or cells: E. coli BL21 (DE3)
T3 sequence (P07237 235-479 H354A): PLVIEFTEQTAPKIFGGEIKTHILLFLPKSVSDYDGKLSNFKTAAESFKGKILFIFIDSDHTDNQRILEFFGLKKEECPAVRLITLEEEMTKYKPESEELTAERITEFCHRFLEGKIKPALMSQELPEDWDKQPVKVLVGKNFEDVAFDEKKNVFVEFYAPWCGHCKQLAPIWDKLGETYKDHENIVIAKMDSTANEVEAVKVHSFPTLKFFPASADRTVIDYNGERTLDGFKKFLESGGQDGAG
Description: as §1, §2

MBP-PDI-b′xa′ K328E = target: T4, MBP-PDI-b′xa′ K328E (Homo sapiens, UniProt P07237, K328E); assay: Isothermal titration calorimetry (ITC); assay type: binding; details: 25 °C
T4 construct: MBP-PDI-b′xa′(235–479); His-tag; made in house; host or cells: E. coli BL21 (DE3)
T4 sequence (P07237 235-479 K328E): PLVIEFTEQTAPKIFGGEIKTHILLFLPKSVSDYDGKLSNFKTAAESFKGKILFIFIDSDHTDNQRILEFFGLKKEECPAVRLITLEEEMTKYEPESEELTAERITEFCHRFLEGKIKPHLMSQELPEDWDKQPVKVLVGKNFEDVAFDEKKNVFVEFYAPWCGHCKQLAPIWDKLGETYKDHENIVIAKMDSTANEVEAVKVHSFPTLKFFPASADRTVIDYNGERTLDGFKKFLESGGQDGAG
Description: as §1, §2

MBP-PDI-b′xa′ L355R = target: T5, MBP-PDI-b′xa′ L355R (Homo sapiens, UniProt P07237, L355R); assay: Isothermal titration calorimetry (ITC); assay type: binding; details: 25 °C
T5 construct: MBP-PDI-b′xa′(235–479); His-tag; made in house; host or cells: E. coli BL21 (DE3)
T5 sequence (P07237 235-479 L355R): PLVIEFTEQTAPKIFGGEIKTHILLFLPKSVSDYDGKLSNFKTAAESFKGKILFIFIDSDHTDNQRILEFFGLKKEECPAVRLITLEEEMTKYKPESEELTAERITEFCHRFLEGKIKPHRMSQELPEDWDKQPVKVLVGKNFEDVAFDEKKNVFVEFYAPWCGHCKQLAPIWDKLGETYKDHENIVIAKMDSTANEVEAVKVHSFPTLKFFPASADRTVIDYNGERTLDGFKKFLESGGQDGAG
Description: as §1, §2

wt MBP-PDI-b′xa′ = target: T6, wt MBP-PDI-b′xa′ (Homo sapiens, UniProt P07237); assay: Isothermal titration calorimetry (ITC); assay type: binding; details: 25 °C
T6 construct: MBP-PDI-b′xa′(235–479); His-tag; made in house; host or cells: E. coli BL21 (DE3)
T6 sequence (P07237 235-480): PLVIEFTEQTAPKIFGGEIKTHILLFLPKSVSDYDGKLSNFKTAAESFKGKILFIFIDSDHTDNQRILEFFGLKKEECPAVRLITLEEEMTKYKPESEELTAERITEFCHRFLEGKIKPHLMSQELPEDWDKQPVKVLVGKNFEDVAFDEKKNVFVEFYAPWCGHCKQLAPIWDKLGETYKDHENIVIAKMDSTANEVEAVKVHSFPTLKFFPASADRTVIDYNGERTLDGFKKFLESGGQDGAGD
Description: as §1, §2

full-length human PDI = full-length human PDI (Homo sapiens, UniProt P07237); assay: Insulin reduction assay; assay type: biochemical; details: compound 100 μM, 1.5 μM protein, last read (100 min); PDI alone 1.125
Chain of full-length human PDI (P07237 18-508): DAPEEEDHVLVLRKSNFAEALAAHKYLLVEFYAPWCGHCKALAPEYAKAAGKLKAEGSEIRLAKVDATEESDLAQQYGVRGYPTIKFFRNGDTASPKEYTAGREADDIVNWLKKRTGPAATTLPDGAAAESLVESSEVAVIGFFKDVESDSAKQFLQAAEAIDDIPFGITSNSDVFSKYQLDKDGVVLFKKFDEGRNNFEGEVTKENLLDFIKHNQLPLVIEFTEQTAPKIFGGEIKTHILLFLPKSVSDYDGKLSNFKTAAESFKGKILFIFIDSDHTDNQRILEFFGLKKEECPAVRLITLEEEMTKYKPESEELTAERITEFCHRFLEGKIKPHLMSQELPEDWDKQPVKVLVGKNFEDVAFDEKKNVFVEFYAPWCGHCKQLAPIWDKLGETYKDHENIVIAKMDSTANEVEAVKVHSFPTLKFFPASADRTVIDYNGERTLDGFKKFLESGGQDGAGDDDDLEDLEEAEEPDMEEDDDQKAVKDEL
Description: (§3) The insulin reduction assay was performed to assess the enzymatic activity of PDI and its MBP-fused recombinant proteins. PDI can reduce insulin in the presence of dithiothreitol (DTT) along with increase in turbidity of the reaction mixture. We thus monitored spectrophotometrically the aggregation of reduced insulin through the increase of turbidity. The reductase activity was measured in 100 μL in presence of 600 μM insulin, 1.5 μM PDI and recombinant PDI proteins, 1 mM DTT, and with protein buffer (pH 7.4), at room temperature over 100 min by absorption at 650 nm. For inhibition assay, 100 μM of rutin, kaempferitrin, tiliroside and 2′-O-galloylhyperin or control buffer was added to the reaction system.

murine MBP-mPDI-b′xa′ = target: T7, murine MBP-mPDI-b′xa′ (Mus musculus, UniProt P09103); assay: Insulin reduction assay; assay type: biochemical; details: rutin 100 μM, last read (100 min); MBP-mPDI-b′xa′ alone 0.832
T7 construct: MBP-mPDI-b′xa′ (236–477); His-tag; made in house; host or cells: E. coli BL21 (DE3)
T7 sequence (P09103 236-477): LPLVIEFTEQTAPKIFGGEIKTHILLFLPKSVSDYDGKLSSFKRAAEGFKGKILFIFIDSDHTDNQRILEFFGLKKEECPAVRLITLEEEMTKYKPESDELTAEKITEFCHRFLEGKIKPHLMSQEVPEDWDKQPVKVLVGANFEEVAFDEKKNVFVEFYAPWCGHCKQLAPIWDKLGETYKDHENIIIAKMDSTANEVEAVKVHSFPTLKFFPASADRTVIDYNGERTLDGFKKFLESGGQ
Description: as §3

[2] = tested on: platelet aggregation and fibrin generation; details: cited from earlier work
ERp5 = tested on: ERp5; design: method as in PMID 22565308; details: cited from earlier work
ERp72 = tested on: ERp72; design: method as in PMID 22565308; details: cited from earlier work
[3] = mouse models, dose of 0.5 mg kg^−1

C[C@@H]1O[C@@H](OC[C@H]2O[C@@H](Oc3c(-c4ccc(O)c(O)c4)oc4cc(O)cc(O)c4c3=O)[C@H](O)[C@@H](O)[C@@H]2O)[C@H](O)[C@H](O)[C@H]1O [rutin]
binding to MBP [1]: does not bind | Kd (MBP-PDI-b′xa′ E359A): 4.1 ± 0.74 µM | N (stoichiometry ratio) (MBP-PDI-b′xa′ E359A): 1.18 ± 0.03 | ΔG (MBP-PDI-b′xa′ E359A): -7.39 ± 0.49 kcal/mol | Kd (MBP-PDI-b′xa′ E359K): 4.48 ± 0.58 µM | N (stoichiometry ratio) (MBP-PDI-b′xa′ E359K): 1.21 ± 0.02 | ΔG (MBP-PDI-b′xa′ E359K): -7.31 ± 0.45 kcal/mol | decrease of binding to H354A mutant compared with wt MBP-PDI-b′xa′ (MBP-PDI-b′xa′ H354A; ITC Kd 5.98 vs 2.39 μM): about 3 times | Kd (MBP-PDI-b′xa′ H354A; ITC, 25 °C, H354A): 5.98 ± 1.08 µM | N (stoichiometry ratio) (MBP-PDI-b′xa′ H354A; ITC, 25 °C, H354A): 0.72 ± 0.03 | ΔG (MBP-PDI-b′xa′ H354A; ITC, 25 °C, H354A): -7.15 ± 0.86 kcal/mol | Kd (MBP-PDI-b′xa′ K328E): 2.29 ± 0.36 µM | N (stoichiometry ratio) (MBP-PDI-b′xa′ K328E): 0.86 ± 0.02 | ΔG (MBP-PDI-b′xa′ K328E): -7.72 ± 0.31 kcal/mol | Kd (MBP-PDI-b′xa′ L355R): 3.5 ± 0.39 µM | N (stoichiometry ratio) (MBP-PDI-b′xa′ L355R): 1.93 ± 0.03 | ΔG (MBP-PDI-b′xa′ L355R): -7.46 ± 0.23 kcal/mol | Kd (wt MBP-PDI-b′xa′): 2.31 µM and 2.39 µM | turbidity (OD650), raw kinetic read at 1:40:32 (full-length human PDI): 0.924 | turbidity (OD650), raw kinetic read at 1:40:32 (murine MBP-mPDI-b′xa′): 0.583 | reversal of inhibitory activities on PDI in vivo ([2]; mouse model, infusion of PDI b′x fragment): rapidly reversed | fibrin generation in vivo [2, 3]: blocked | platelet aggregation in vivo [2, 3]: blocked | inhibition of ERp5 (ERp5): did not inhibit | inhibition of ERp72 (ERp72): did not inhibit
